# Results from ChEMBL document CHEMBL5729376, “SSAO inhibitors and use thereof” (2022).
# How the values were obtained:
# [1] = biological target: T1, Amine oxidase [flavin-containing] B (Homo sapiens, UniProt P27338); assay: (§1) SSAO Activity Assay: Amine oxidase activity of recombinant hSSAO, hMAO-A, and hMAO-B isoforms are measured using the MAO-Glo assay kit (Promega, V1402). Ten nL test compounds (with DMSO as vehicle, 0.1% v/v for hSSAO, hMAO-A and hMAO-B) were added into assay plates by Echo, and pre-incubated with 5 μL of enzyme for 30 mins at room temperature before the addition of 5 μL of luminogenic substrate. The substrate concentration is 40 μM for human recombinant SSAO, 40 μM for human recombinant MAO-A, and 4 μM for human recombinant MAO-B. The hSSAO and hMAO-A assays were conducted in the MAO-A reaction buffer in the kit, and the MAO-B assay was conducted in the MAO-B reaction buffer. Oxidation of the substrate was conducted for 1 hr, before the addition of detecting reagent according the manufacture's protocol. The IC50 value of the tested compounds was calculated by fitting the dose response curve using a 4-parameter non-linear regression routine.
# T1 sequence (P27338 whole entry): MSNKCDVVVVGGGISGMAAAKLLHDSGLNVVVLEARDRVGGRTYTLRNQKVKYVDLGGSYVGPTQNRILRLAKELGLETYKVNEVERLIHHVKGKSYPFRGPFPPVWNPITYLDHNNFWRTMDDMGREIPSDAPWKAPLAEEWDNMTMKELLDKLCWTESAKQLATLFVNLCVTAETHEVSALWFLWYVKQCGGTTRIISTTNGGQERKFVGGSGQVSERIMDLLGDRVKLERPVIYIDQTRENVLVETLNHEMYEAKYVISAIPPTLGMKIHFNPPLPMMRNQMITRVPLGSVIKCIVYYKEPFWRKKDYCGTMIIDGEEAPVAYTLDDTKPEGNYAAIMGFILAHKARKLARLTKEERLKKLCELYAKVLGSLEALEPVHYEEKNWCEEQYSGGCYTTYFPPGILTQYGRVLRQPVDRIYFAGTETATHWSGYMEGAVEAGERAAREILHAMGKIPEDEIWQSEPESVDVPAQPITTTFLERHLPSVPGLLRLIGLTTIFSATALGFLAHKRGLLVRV
# [2] = biological target: T2, Amine oxidase [flavin-containing] A (Homo sapiens, UniProt P21397); assay: as §1
# T2 sequence (P21397 whole entry): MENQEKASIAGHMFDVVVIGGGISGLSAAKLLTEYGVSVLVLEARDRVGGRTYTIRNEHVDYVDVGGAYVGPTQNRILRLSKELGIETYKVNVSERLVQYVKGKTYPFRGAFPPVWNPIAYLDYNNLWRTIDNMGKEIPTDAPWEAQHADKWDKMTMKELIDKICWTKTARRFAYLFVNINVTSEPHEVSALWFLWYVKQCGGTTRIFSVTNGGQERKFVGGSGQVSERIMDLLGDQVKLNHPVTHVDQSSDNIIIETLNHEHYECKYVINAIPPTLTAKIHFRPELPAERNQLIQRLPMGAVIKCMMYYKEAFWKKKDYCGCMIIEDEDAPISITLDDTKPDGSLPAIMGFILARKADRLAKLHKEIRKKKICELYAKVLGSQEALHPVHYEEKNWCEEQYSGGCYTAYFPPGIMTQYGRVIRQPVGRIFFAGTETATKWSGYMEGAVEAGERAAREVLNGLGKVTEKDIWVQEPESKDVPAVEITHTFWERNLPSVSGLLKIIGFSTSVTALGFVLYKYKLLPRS
Structure (SMILES),IC50 [1] [µM],IC50 [2] [µM]
N#CC1(CS(=O)(=O)c2ccc(OC/C(=C/F)CN)cc2)CCOCC1,< 10,–
NC/C(=C\F)COc1ccc(S(=O)(=O)CC2CCN(C(=O)C3CC3)CC2)c(Cl)c1,> 30,> 30
COC1(CS(=O)(=O)c2ccc(OC/C(=C/F)CN)cc2)CCOCC1,< 10,> 30
NC/C(=C\F)COc1ccc(S(=O)(=O)CC23CCC(O)(CC2)CC3)cc1,–,> 30
NC/C(=C\F)COc1ccc(S(=O)(=O)CC23CCC(N4CCCS4(=O)=O)(CC2)CC3)cc1,> 30,> 30
NC/C(=C\F)COc1ccc(S(=O)(=O)CC23CCC(NC(=O)C4CC4)(CC2)CC3)cc1,–,> 30
NC/C(=C\F)COc1ccc(S(=O)(=O)COCC2CCN(C(=O)C3(C(F)(F)F)CC3)CC2)cc1,–,> 30
NC/C(=C\F)COc1ccc(S(=O)(=O)COC2CCN(C(=O)C3CCCC3)CC2)cc1,> 30,> 30
CC(C)C(=O)Nc1ccc(CS(=O)(=O)c2ccc(OC/C(=C/F)CN)cc2)cc1,< 10,> 30
C[C@@H](CN1CCCCC1=O)CS(=O)(=O)c1ccc(OC/C(=C/F)CN)cc1,> 30,> 30
CC(C)C(=O)N1CC(CS(=O)(=O)c2ccc(OC/C(=C/F)CN)cc2)C1,< 10,> 30
CC(C)(C)C(=O)N1CCN(CS(=O)(=O)c2ccc(OC/C(=C/F)CN)cc2)C(=O)C1,< 10,–
NC/C(=C\F)COc1ccc(S(=O)(=O)COC2CCOCC2)cc1,< 10,> 30
NC/C(=C\F)COc1ccc(S(=O)(=O)CC23CCC(C(=O)NC4CCC4)(CC2)CC3)cc1,–,> 30
CC1CCN(C23CCC(CS(=O)(=O)c4ccc(OC/C(=C/F)CN)cc4)(CC2)CC3)C1=O (centres undefined),–,> 30
NC/C(=C\F)COc1ccc(S(=O)(=O)CC2CCOCC2)cc1,< 10,> 30
N#CC1(COCS(=O)(=O)c2ccc(OC/C(=C/F)CN)cc2)CCOCC1,> 30,> 30
NC/C(=C\F)COc1ccc(S(=O)(=O)CC23CCC(C(=O)N4CCC(F)(F)CC4)(CC2)CC3)cc1,> 30,> 30
NC/C(=C\F)COc1ccc(S(=O)(=O)Cc2cnc(N3CCCC3)nc2)cc1,< 10,> 30
N#CC12CCC(CS(=O)(=O)c3ccc(OC/C(=C/F)CN)cc3)(CC1)CC2,< 10,> 30
C[C@H](CN1CCCC1=O)CS(=O)(=O)c1ccc(OC/C(=C/F)CN)cc1,> 30,> 30
CC(C)C(=O)N1CCC(C)(CS(=O)(=O)c2ccc(OC/C(=C/F)CN)cc2)CC1,> 30,> 30
CC1(CS(=O)(=O)c2ccc(OC/C(=C/F)CN)cc2)CCN(C(=O)C2(C)CC2)CC1,< 10,–

Structure (SMILES),IC50 [1] [µM],IC50 [2] [µM]
CC1(CS(=O)(=O)c2ccc(OC/C(=C/F)CN)cc2)CCOCC1,< 10,> 30
NC/C(=C\F)COc1ccc(S(=O)(=O)CC2CCOCC2)c(Cl)c1,< 10,–
CC(C)C(=O)N1CCC(C)(COCS(=O)(=O)c2ccc(OC/C(=C/F)CN)cc2)CC1,< 10,> 30
NC/C(=C\F)COc1ccc(S(=O)(=O)Cc2ccc(C(=O)N3CCCC3)cc2)cc1,> 30,> 30
CC(C)N(C)C(=O)C(C)(C)CS(=O)(=O)c1ccc(OC/C(=C/F)CN)cc1,> 30,> 30
NC/C(=C\F)COc1ccc(S(=O)(=O)CC23CCC(NC(=O)CC(F)(F)F)(CC2)CC3)cc1,> 30,> 30
C[C@@H](CN1CCCC1=O)CS(=O)(=O)c1ccc(OC/C(=C/F)CN)cc1,> 30,> 30
CC(C)C(=O)N(C)CC(C)(C)CS(=O)(=O)c1ccc(OC/C(=C/F)CN)cc1,–,> 30
NC/C(=C\F)COc1ccc(S(=O)(=O)CC2CCN(C(=O)C34CC(F)(C3)C4)CC2)cc1,< 10,–
CC1(COCS(=O)(=O)c2ccc(OC/C(=C/F)CN)cc2)CCOCC1,< 10,> 30
NC/C(=C\F)COc1ccc(S(=O)(=O)CC23CCC(C4(NC(=O)C5CC5)CC4)(CC2)CC3)cc1,> 30,> 30
CC1(COCS(=O)(=O)c2ccc(OC/C(=C/F)CN)cc2)CCN(C(=O)C(C)(C)C)CC1,< 10,> 30
NC/C(=C\F)COc1ccc(S(=O)(=O)C[C@@H]2CCCO2)cc1,< 10,> 30
NC/C(=C\F)COc1ccc(S(=O)(=O)C[C@H]2CCCO2)cc1,< 10,> 30
CC1(C(=O)N2CCN(CS(=O)(=O)c3ccc(OC/C(=C/F)CN)cc3)C(=O)C2)CCC1,< 10,–
CN(C)C(=O)C12CCC(CS(=O)(=O)c3ccc(OC/C(=C/F)CN)cc3)(CC1)CC2,–,> 30
NC/C(=C\F)COc1ccc(S(=O)(=O)CC2(O)CCOCC2)cc1,< 10,> 30
NC/C(=C\F)COc1ccc(S(=O)(=O)Cc2ccc(C(=O)NC3CCC3)c(C(F)(F)F)c2)cc1,–,> 30
NC/C(=C\F)COc1ccc(S(=O)(=O)C[C@H]2CC[C@H](NC(=O)C3CC3)CC2)cc1,< 10,> 30
CCN(CC(C)(C)CS(=O)(=O)c1ccc(OC/C(=C/F)CN)cc1)C(=O)C(C)C,–,> 30
COCS(=O)(=O)c1ccc(OC/C(=C/F)CN)cc1,–,> 30
CC(C)n1ccc(CS(=O)(=O)c2ccc(OC/C(=C/F)CN)cc2)cc1=O,< 10,> 30
CC(C)C(=O)N1CCC(CS(=O)(=O)c2ccc(OC/C(=C/F)CN)cc2)C1 (centres undefined),> 30,–

# Results, then the compound that gave them:
IC50 [1] [µM],IC50 [2] [µM],Structure (SMILES)
> 30,> 30,CC(C)(C)C(=O)N1CCC(CS(=O)(=O)c2ccc(OC/C(=C/F)CN)cc2)CC1
> 30,> 30,CN(C(=O)C1CC1)C12CCC(CS(=O)(=O)c3ccc(OC/C(=C/F)CN)cc3)(CC1)CC2
< 10,< 10,NC/C(=C\F)COc1ccc(S(=O)(=O)CC2CCOCC2)c(F)c1
10 to 30,> 30,NC/C(=C\F)COc1ccc(S(=O)(=O)COCC2CCOCC2)cc1
< 10,> 30,COCC(COC)OCS(=O)(=O)c1ccc(OC/C(=C/F)CN)cc1
10 to 30,10 to 30,CO[C@H]1CC[C@@H](CS(=O)(=O)c2ccc(OC/C(=C/F)CN)cc2)CC1
–,< 10,CC(C)(C)C(=O)NC12CCC(CS(=O)(=O)c3ccc(OC/C(=C/F)CN)cc3)(CC1)C2
< 10,> 30,CC1(C)COC(CS(=O)(=O)c2ccc(OC/C(=C/F)CN)cc2)CO1 (centres undefined)
> 30,> 30,C[C@H](CN1CCCCC1=O)CS(=O)(=O)c1ccc(OC/C(=C/F)CN)cc1
–,> 30,NC/C(=C\F)COc1ccc(S(=O)(=O)CC23CCC(C4(O)CC4)(CC2)CC3)cc1
10 to 30,10 to 30,NC/C(=C\F)COc1ccc(S(=O)(=O)C[C@H]2CC[C@H](O)CC2)cc1
< 10,> 30,CC(C)n1nc(CS(=O)(=O)c2ccc(OC/C(=C/F)CN)cc2)ccc1=O
> 30,> 30,COCCOCS(=O)(=O)c1ccc(OC/C(=C/F)CN)cc1
< 10,> 30,COCC(COC)CS(=O)(=O)c1ccc(OC/C(=C/F)CN)cc1
> 30,> 30,CCN(CC(C)CS(=O)(=O)c1ccc(OC/C(=C/F)CN)cc1)C(=O)C(C)C (centres undefined)
< 10,10 to 30,NC/C(=C\F)COc1ccc(S(=O)(=O)C[C@H]2CCOC2)cc1
> 30,10 to 30,NC/C(=C\F)COc1ccc(S(=O)(=O)CC2CCCN(C(=O)C3CCCC3)C2)cc1 (centres undefined)
< 10,10 to 30,CO[C@H]1CC[C@H](CS(=O)(=O)c2ccc(OC/C(=C/F)CN)cc2)CC1
< 10,< 10,CC1(CS(=O)(=O)c2ccc(OC/C(=C/F)CN)cc2F)CCOCC1
< 10,< 10,NC/C(=C\F)COc1ccc(S(=O)(=O)C[C@H]2CC[C@@H](O)CC2)cc1
< 10,< 10,NC/C(=C\F)COc1ccc(S(=O)(=O)CC2CCOCC2)cc1F
< 10,10 to 30,NC/C(=C\F)COc1ccc(S(=O)(=O)C[C@@H]2CCOC2)cc1
< 10,< 10,NC/C(=C\F)COc1ccc(S(=O)(=O)CC2CCN(C(=O)c3ccc(F)cc3)CC2)cc1
